Where two headings read alike, the source gives them in different places.
What was measured:
[1] = test system: COX formation in pooled HLMs; conditions: 500 μM COT, vs control without inhibitor
[2] = urine of Caucasian smokers; ref Rangiah et al., 2011; cited from earlier work
[3] = target: CYP2C19 (Homo sapiens, UniProt P33261); conditions: UM2C19/EM2C19 genotype groups compared with PM2C19 genotype group; ref Li-Wan-Po et al., 2010; cited from earlier work
[4] = ref Jarvis et al., 1988; cited from earlier work
[5] = target: CYP2E1 (Homo sapiens, UniProt P05181); type: in vitro ADME; conditions: microsomes of HEK293 cells overexpressing CYP2E1
CYP2E1, sequence (P05181 whole entry): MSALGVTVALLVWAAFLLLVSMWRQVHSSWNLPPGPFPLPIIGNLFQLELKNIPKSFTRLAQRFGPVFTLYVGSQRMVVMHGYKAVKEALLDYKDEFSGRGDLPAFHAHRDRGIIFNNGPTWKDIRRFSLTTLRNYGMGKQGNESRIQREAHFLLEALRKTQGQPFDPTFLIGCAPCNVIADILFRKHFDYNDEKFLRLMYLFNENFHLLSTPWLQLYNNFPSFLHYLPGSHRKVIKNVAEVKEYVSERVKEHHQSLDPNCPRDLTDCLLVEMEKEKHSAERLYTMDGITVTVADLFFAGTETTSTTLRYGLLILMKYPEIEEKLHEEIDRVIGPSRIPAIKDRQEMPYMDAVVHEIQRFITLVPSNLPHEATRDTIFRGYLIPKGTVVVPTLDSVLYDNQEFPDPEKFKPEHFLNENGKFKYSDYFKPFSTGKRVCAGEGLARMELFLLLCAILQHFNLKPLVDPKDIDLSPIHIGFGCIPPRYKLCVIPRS

[6] = target: CYP3A4 (Homo sapiens, UniProt P08684); type: in vitro ADME; conditions: microsomes of HEK293 cells overexpressing CYP3A4
CYP3A4, sequence (P08684 whole entry): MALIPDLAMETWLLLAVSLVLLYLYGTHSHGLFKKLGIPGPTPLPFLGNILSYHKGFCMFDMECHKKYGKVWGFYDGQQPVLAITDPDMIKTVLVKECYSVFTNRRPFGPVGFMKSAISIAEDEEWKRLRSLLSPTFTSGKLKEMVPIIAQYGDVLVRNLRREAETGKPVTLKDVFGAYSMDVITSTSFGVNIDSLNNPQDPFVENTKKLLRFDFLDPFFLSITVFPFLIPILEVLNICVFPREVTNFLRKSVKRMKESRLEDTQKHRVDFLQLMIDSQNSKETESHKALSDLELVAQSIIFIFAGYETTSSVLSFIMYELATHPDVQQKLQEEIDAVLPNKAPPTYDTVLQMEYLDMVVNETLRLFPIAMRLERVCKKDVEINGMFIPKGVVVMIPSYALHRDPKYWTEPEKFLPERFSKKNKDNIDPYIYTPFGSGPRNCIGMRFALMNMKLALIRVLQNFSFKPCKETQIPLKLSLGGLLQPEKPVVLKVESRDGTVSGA

[7] = target: T1, CYP2B6 (Homo sapiens, UniProt P20813); type: in vitro ADME; conditions: microsomes of HEK293 cells overexpressing CYP2B6
T1 sequence (P20813 1-491): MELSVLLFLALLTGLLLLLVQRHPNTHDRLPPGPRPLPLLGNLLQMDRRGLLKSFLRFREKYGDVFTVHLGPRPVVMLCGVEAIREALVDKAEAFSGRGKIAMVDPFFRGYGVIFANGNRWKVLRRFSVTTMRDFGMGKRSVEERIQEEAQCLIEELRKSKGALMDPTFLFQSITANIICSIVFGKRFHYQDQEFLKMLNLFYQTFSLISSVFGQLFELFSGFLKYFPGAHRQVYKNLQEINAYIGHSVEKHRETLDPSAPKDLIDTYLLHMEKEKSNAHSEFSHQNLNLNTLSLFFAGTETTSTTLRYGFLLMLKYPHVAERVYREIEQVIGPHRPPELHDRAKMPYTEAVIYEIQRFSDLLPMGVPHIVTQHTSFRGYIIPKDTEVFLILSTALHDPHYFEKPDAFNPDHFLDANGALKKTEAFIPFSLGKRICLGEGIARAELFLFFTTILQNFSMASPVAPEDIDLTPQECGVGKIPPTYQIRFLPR

[8] = Kinetic analysis of COX formation in pooled HLMs; type: in vitro ADME, human; conditions: pooled HLMs from 20 individuals
[9] = test system: P450; conditions: rat, in vivo; cited from earlier work
[10] = test system: CYP2A6; conditions: formation of COT from nicotine, ref Yamanaka et al., 2005; cited from earlier work
[11] = test system: CYP2B6; conditions: formation of COT from nicotine, ref Yamanaka et al., 2005; cited from earlier work
[12] = in smokers; no reference given; cited from earlier work

CYP2C19, sequence (P33261 whole entry): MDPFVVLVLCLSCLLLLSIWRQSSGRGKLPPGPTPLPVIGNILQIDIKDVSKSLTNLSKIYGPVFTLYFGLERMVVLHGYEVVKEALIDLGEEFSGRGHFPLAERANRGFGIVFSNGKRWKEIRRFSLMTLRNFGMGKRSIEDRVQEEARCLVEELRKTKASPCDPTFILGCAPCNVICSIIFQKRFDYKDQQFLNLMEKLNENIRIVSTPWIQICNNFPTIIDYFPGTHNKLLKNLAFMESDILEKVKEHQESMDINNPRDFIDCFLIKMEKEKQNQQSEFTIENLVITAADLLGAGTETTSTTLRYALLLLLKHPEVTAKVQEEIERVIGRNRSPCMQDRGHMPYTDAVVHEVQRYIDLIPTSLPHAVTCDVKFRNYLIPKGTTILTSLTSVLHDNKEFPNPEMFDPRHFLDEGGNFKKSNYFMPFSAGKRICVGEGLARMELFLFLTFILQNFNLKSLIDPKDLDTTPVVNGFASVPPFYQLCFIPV

Question: Which “decrease in COX formation” value ([1]; 1 µM inhibitor) does the source give for `N[C@@H]1C[C@H]1c1ccccc1` (racemic) [tranylcypromine] here?
Answer: The value was 15%.

Question: With `O=C1CCC(c2cccnc2)N1CO` (stereo not shown) [N-(hydroxyl-methyl) norcotinine] as the compound, how does the “average share of cotinine metabolites in urine” value [2] read?
Answer: Its value is 4%.

Question: Which “decrease in COX formation” value ([1]; 10 µM inhibitor) does the source give for `COC(=O)[C@H](c1ccccc1Cl)N1CCc2sccc2C1` [clopidogrel] here?
Answer: The value was 21%.

Question: What about the increased enzyme efficacy [3] of the same compound?
Answer: Its increased enzyme efficacy is 35%–40%.

Question: Which “half-life of elimination from plasma” value [4] does the source give for `CN1C(=O)CC[C@H]1c1cccnc1` [cotinine] here?
Answer: Its value is 10 to 27 h.

Question: What about the Km at 30 min [5] of the same compound?
Answer: Its Km at 30 min is > 10000 µM.

Question: What about the Km at 30 min [6] of the same compound?
Answer: The Km at 30 min was > 10000 µM.

Question: And the Km at 30 min [7]?
Answer: Its Km at 30 min is 810 ± 24 µM.

Question: And the Km ([8]; COX formation from cotinine)?
Answer: Its Km is 550 ± 49 µM.

Question: And the Vmax ([8]; COX formation)?
Answer: Its Vmax is 587 ± 26 pmol/min/mg.

Question: For `CC(C)(C(=O)c1cccnc1)c1cccnc1` [metyrapone], which “effect on phenobarbital-induced increase of COX production” value [9] is on record?
Answer: Its value is “negated”.

Question: For `CN1CCC[C@H]1c1cccnc1` [nicotine], which Km [10] is on record?
Answer: Its Km is 95 µM.

Question: And the Km [11]?
Answer: Its Km is 550 µM.

Question: What about the “share of metabolism via formation of cotinine by CYP2A6” value [12] of the same compound?
Answer: The value was ~70%.

Question: Which increased enzyme efficacy [3] does the source give for `COc1ccc2[nH]c([S+]([O-])Cc3ncc(C)c(OC)c3C)nc2c1` (stereo not shown) [omeprazole] here?
Answer: Its increased enzyme efficacy is 35%–40%.

Question: With `CCC1(c2ccccc2)C(=O)NC(=O)NC1=O` [phenobarbital] as the compound, how does the “increase of COX production” value [9] read?
Answer: The value was “eightfold”.

— article PMC9832378 (Drug Metabolism and Disposition, 2023)
